≈ marks a conversion by molar mass, not a printed value.
Tests used:
Neisseria gonorrhoeae = assay: reference broth microdilution susceptibility assay; assay type: cell-based; conditions: Table III
Description: (§1) The halocombstatins of the present invention appear to also have antimicrobial properties. More specifically, they appear to have antifungal and/or antibacterial properties. Antimicrobial evaluation of the halocombstatins involved susceptibility testing performed by the reference broth microdilution assay. The antimicrobial activities of the halocombstatins were very similar, targeting Gram-positive bacteria and the pathogenic fungi Cryptococcus neoformans, and results are shown in Table III.
(§2) (See Pettit, G. R., et al., Antineoplastic Agents 463. Synthesis of Combretastatin A-3 Diphosphates, Anticancer Drug Design 2000, 15, 397-404.) To determine the antimicrobial activity of the present compounds, susceptibility testing was performed by the reference broth microdilution assay. (See National Committee for Clinical Laboratory Standards. Methods for Dilution Antimicrobial Susceptibility Tests for Bacteria that Grow Aerobically. Approved Standard M7-A5. Wayne, P A: NCCLS, 2000. National Committee for Clinical Laboratory Standards. Reference Method for Broth Dilution Antifungal Susceptibility Testing of Yeasts. Aproved Standard M27-A. Wayne, P A: NCCLS, 1997.) The antimicrobial activities of the halocombretastatins of the present invention were very similar, targeting Gram-positive bacteria and Cryptococcus neoformans. This is illustrated in further detail in Table III. Thus, several of the novel compounds of the present invention appear to have potential as antimicrobial agents, such as antifingals and antibacterials.

Staphylococcus aureus = assay: reference broth microdilution susceptibility assay; assay type: cell-based; conditions: Table III
Description: as §1, §2

Enterococcus faecalis = assay: reference broth microdilution susceptibility assay; assay type: cell-based; conditions: Table III
Description: as §1, §2

Cryptococcus neoformans = assay: reference broth microdilution susceptibility assay; assay type: cell-based; conditions: Table III
Description: as §1, §2

[1] = system: Stenotrophomonas maltophilia; assay: reference broth microdilution susceptibility assay; assay type: cell-based; conditions: Table III
Description: as §1, §2

Streptococcus pneumoniae = assay: reference broth microdilution susceptibility assay; assay type: cell-based; conditions: Table III
Description: as §1, §2

Candida albicans = assay: reference broth microdilution susceptibility assay; assay type: cell-based; conditions: Table III
Description: as §1, §2

Enterobacter cloacae = assay: reference broth microdilution susceptibility assay; assay type: cell-based; conditions: Table III
Description: as §1, §2

Escherichia coli = assay: reference broth microdilution susceptibility assay; assay type: cell-based; conditions: Table III
Description: as §1, §2

Micrococcus luteus = assay: reference broth microdilution susceptibility assay; assay type: cell-based; conditions: Table III
Description: as §1, §2

Prostate DU-145 = assay: human cancer cell growth inhibition, sulforhodamine B assay; assay type: cell-based; conditions: Table I, 48 hours; for GI50: Homo sapiens, DU-145, read-out: Human cancer cell line inhibition (GI50) Prostate DU-145
Protocol: (§3) Inhibition of human cancer cell growth was assessed using the National Cancer Institute's standard sulforhodamine B assay. After 48 hours, the plates were fixed with trichloracetic acid, stained with sulforhodamine B and read with an automated microplate reader. […] Inhibition of the mouse leukemia P388 cells was assessed in a 10% horse serum/Fisher medium soution for 24 hours, followed by a 48 hour incubation with serial dilutions of the compounds. Cell growth inhibition (ED50) was then calculated using a Z1 Becleman/Coulter particle counter.

Pancreas BXPC-3 = assay: as above; assay type: cell-based; conditions: Table I, 48 hours; for GI50: Homo sapiens, BXPC-3, read-out: Human cancer cell line inhibition (GI50) Pancreas-a BXPC-3
Protocol: as §3

Breast MCF-7 = assay: as above; assay type: cell-based; conditions: Table I, 48 hours; for GI50: Homo sapiens, MCF7, read-out: Human cancer cell line inhibition (GI50) Breast adn MCF-7
Protocol: as §3

CNS SF268 = assay: as above; assay type: cell-based; conditions: Table I, 48 hours; for GI50: Homo sapiens, SF-268, read-out: Human cancer cell line inhibition (GI50) CNS SF268
Protocol: as §3

Lung-NSC NCI-H460 = assay: as above; assay type: cell-based; conditions: Table I, 48 hours; for GI50: Homo sapiens, NCI-H460, read-out: Human cancer cell line inhibition (GI50) Lung-NSC NCI-H460
Protocol: as §3

Colon KM20L2 = assay: as above; assay type: cell-based; conditions: Table I, 48 hours; for GI50: Homo sapiens, KM-20L2, read-out: Human cancer cell line inhibition (GI50) Colon KM20L2
Protocol: as §3

[2] = system: human umbilical vein endothelial cells (HUVEC); assay: Matrigel cord formation assay; assay type: cell-based; parameters: key: −: No Junctions; +: Few; ++: ˜50% of Control; +++: Same as Control; conditions: 24 hours, compared to untreated controls
Protocol: (§4) In vitro Matrigel antiangiogenesis assays were implemented according to the Developmental Therapeutics Program NCI/NIH protocols known to one of skill in the art. Matrigel, a basement membrane matrix, was obtained from BD Biosciences. Growth inhibition and cord formation assays were Conducted using human umbilical vein endothelial cells obtained from GlycoTeCh. HUVEC cells were grown in EGM-2 medium.
(§5) An aliquot of sixty microliters was placed in each well of an ice-cold 96-well plate. The plates were then left for 15 minutes at room temperature, then incubated for 30 minutes at 37° C. to permit the matrigel to polymerize. Meanwhile, HUVEC cells were harvested and diluted to a concentration of 2×10^5 cells/ml. A solution of 100 μL containing the compounds to be tested was added next. After 24 hours incubation, pictures were taken for each concentration using an inverted Nikon Diaphot microscope and D100 digital camera. Drug effect was assessed, compared to untreated controls, by measuring the length of cords formed and number ofjunctions.

[3] = system: human umbilical vein endothelial cells (HUVEC); assay: Matrigel cord formation assay; assay type: cell-based; parameters: key to Lengths of Cords: −: No Cords; +: Small; ++: ˜50% of Control; +++: Same as Control; conditions: 24 hours, compared to untreated controls
Protocol: as §4, §5

[4] = system: human umbilical vein endothelial cells (HUVEC); assay: HUVEC growth inhibition, sulforhodamine B assay; assay type: cell-based; conditions: for Relative % Growth: HUVEC; for Human Umbilical Vein Endothelial Cell (HUVEC) Inhibition Values (GI50): Table V
Protocol: as §4
The standard sulforhodamine B assay (see Cancer Cell Line Procedures above) was used to evaluate results using HUVEC cells. IC50 or ED50 (drug concentration causing 50% inhibition) was calculated from the plotted data.

Row | Compound | melting point | Range of minimum inhibitory concentration, Neisseria gonorrhoeae (Neisseria gonorrhoeae) | Range of minimum inhibitory concentration, Staphylococcus aureus (Staphylococcus aureus) | Range of minimum inhibitory concentration, Enterococcus faecalis (Enterococcus faecalis) | Range of minimum inhibitory concentration, Cryptococcus neoformans (Cryptococcus neoformans) | Range of minimum inhibitory concentration, Stenotrophomonas maltophilia [1] | Range of minimum inhibitory concentration, Streptococcus pneumoniae (Streptococcus pneumoniae) | Range of minimum inhibitory concentration, Candida albicans (Candida albicans) | Range of minimum inhibitory concentration, Enterobacter cloacae (Enterobacter cloacae) | Range of minimum inhibitory concentration, Escherichia coli (Escherichia coli) | Range of minimum inhibitory concentration, Micrococcus luteus (Micrococcus luteus) | Human cancer cell line inhibition (GI50) Prostate DU-145 (Prostate DU-145) | Human cancer cell line inhibition (GI50) Pancreas-a BXPC-3 (Pancreas BXPC-3) | Human cancer cell line inhibition (GI50) Breast adn MCF-7 (Breast MCF-7) | Human cancer cell line inhibition (GI50) CNS SF268 (CNS SF268) | Human cancer cell line inhibition (GI50) Lung-NSC NCI-H460 (Lung-NSC NCI-H460) | Human cancer cell line inhibition (GI50) Colon KM20L2 (Colon KM20L2) | further results
1 | COc1ccc(/C=C\c2cc(I)c(OC)c(OC)c2)cc1C(C)=O | 103 to 104 °C |  |  |  |  |  |  |  |  |  |  |  |  |  |  |  |  | 
2 | 3-Fluoro-4,4′,5-trimethoy-3′-hydroxy-E-stilhene [Compound 11b] |  | 8 to 16 µg/mL | 32 to 64 µg/mL | * (no inhibition at 64 μg/ml) | 64 µg/mL | * (no inhibition at 64 μg/ml) | 64 µg/mL | * (no inhibition at 64 μg/ml) | * (no inhibition at 64 μg/ml) | * (no inhibition at 64 μg/ml) | 16 to 32 µg/mL | 0.18 µg/mL | 2.2 µg/mL | 0.051 µg/mL | 0.35 µg/mL | 0.18 µg/mL | 0.53 µg/mL | 
3 | COc1ccc(/C=C/c2cc(Cl)c(OC)c(OC)c2)cc1O [Compound 12b, 3-Chloro-4,4′,5-trimethoxy-3′-hydroxy-E-stilbene] | 138 to 140 °C |  |  |  |  |  |  |  |  |  |  |  |  |  |  |  |  | GI50 (Prostate DU-145): 0.038 µg/mL (≈ 0.118 µM); GI50 (Pancreas BXPC-3): 0.59 µg/mL (≈ 1.84 µM); GI50 (Breast MCF-7): 0.041 µg/mL (≈ 0.128 µM); GI50 (CNS SF268): 0.048 µg/mL (≈ 0.15 µM); GI50 (Lung-NSC NCI-H460): 0.034 µg/mL (≈ 0.106 µM); GI50 (Colon KM20L2): 1.4 µg/mL (≈ 4.36 µM)
4 | COc1ccc(/C=C/c2cc(I)c(OC)c(OC)c2)cc1O [Compound 14b, 3-Iodo-4,4′,5-trimethoxy-3′-hydroxy-E-stilbene] | 111 to 113 °C | 4 to 16 µg/mL | 8 to 64 µg/mL | * (no inhibition at 64 μg/ml) | 64 µg/mL | * (no inhibition at 64 μg/ml) | * (no inhibition at 64 μg/ml) | * (no inhibition at 64 μg/ml) | * (no inhibition at 64 μg/ml) | * (no inhibition at 64 μg/ml) | 4 to 8 µg/mL |  |  |  |  |  |  | GI50 (Prostate DU-145): 0.27 µg/mL (≈ 0.655 µM); GI50 (Pancreas BXPC-3): 2.7 µg/mL (≈ 6.55 µM); GI50 (Breast MCF-7): 0.18 µg/mL (≈ 0.437 µM); GI50 (CNS SF268): 0.55 µg/mL (≈ 1.33 µM); GI50 (Lung-NSC NCI-H460): 0.21 µg/mL (≈ 0.509 µM); GI50 (Colon KM20L2): 1.7 µg/mL (≈ 4.12 µM)
5 | COc1ccc(/C=C\c2cc(I)c(OC)c(I)c2)cc1C(C)=O [Compound 22c, 3,5-diiodo-4,4′-dimethoxy-3′-acetyl-z-stilbene] | 121 to 122 °C |  |  |  |  |  |  |  |  |  |  |  |  |  |  |  |  | 
6 | Sodium 3,5-diiodo-4,4′dimethoxy-z-stilbene 3′-O-phosphate [Compound T (Table Ia)] |  |  |  |  |  |  |  |  |  |  |  |  |  |  |  |  |  | Number of junctions ([2]; 1 μg/ml): −; Lengths of Cords ([3]; 0.1 μg/ml): +; Lengths of Cords ([3]; 1 μg/ml): −; Relative % Growth ([4]; 0.0001 μg/ml): >100%; Relative % Growth ([4]; 0.01 μg/ml): >100%; Relative % Growth ([4]; 0.1 μg/ml): −2%; Relative % Growth ([4]; 1 μg/ml): −7%; Human Umbilical Vein Endothelial Cell (HUVEC) Inhibition Values (GI50) [4]: 0.051 µg/mL
7 | Sodium 3-fluoro-4,4′,5-trimethoxy-Z-stilbene 3′-O-phosphate [Compound 18a] |  | 16 µg/mL | * (no inhibition at 64 μg/ml) | * (no inhibition at 64 μg/ml) | * (no inhibition at 64 μg/ml) | * (no inhibition at 64 μg/ml) | * (no inhibition at 64 μg/ml) | * (no inhibition at 64 μg/ml) | * (no inhibition at 64 μg/ml) | * (no inhibition at 64 μg/ml) | * (no inhibition at 64 μg/ml) | 0.0036 µg/mL | 0.59 µg/mL | 0.0044 µg/mL | 0.0051 µg/mL | 0.0094 µg/mL | 1.5 µg/mL | 
8 | Sodium 3-iodo-4,4′,5-trimethoxy-z-stilbene 3′-O-phosphate [Compound 20a] |  | 16 to 32 µg/mL | * (no inhibition at 64 μg/ml) | * (no inhibition at 64 μg/ml) | * (no inhibition at 64 μg/ml) | * (no inhibition at 64 μg/ml) | * (no inhibition at 64 μg/ml) | * (no inhibition at 64 μg/ml) | * (no inhibition at 64 μg/ml) | * (no inhibition at 64 μg/ml) | * (no inhibition at 64 μg/ml) | 0.0078 µg/mL | 0.47 µg/mL | 0.012 µg/mL | 0.0052 µg/mL | 0.0031 µg/mL | 0.37 µg/mL | Number of junctions ([2]; 0.001 μg/ml): +; Number of junctions ([2]; 0.01 μg/ml): −; Number of junctions ([2]; 0.1 μg/ml): −; Lengths of Cords ([3]; 0.001 μg/ml): +; Lengths of Cords ([3]; 0.01 μg/ml): −; Lengths of Cords ([3]; 0.1 μg/ml): −; Relative % Growth ([4]; 0.0001 μg/ml): 104%; Relative % Growth ([4]; 0.001 μg/ml): 5%; Relative % Growth ([4]; 0.01 μg/ml): 14%; Relative % Growth ([4]; 0.1 μg/ml): 7%; Human Umbilical Vein Endothelial Cell (HUVEC) Inhibition Values (GI50) [4]: 0.00035 µg/mL

From US20070167412A1, “HALOCOMBSTATINS AND METHODS OF SYNTHESIS THEREOF” (ARIZONA BOARD OF REGENTS, priority 2003, published 2007)
